Assay results as given in US5821046A, “RNA oligonucleotides that bind HIV tat protein” (RiboTargets Holdings PLC, priority 1990, dated 1998).
pIC50: −log10 of the molar value. Where two headings read alike, the source gives them in different places.

What was measured:
[1] = test system: tat-dependent promoter activity of viral LTR carrying the TAR sequence; assay: trans-activation CAT assay, HeLa cells cotransfected with LTR-CAT test plasmid and tat expression plasmid; assay type: cell-based; details: HeLa cells cotransfected with tat plasmid
Text: If tat binding to TAR is necessary for trans-activation, then viral LTRs carrying TAR sequences with low affinities for tat should always have reduced tat-dependent promoter activity in vivo. Site-directed mutagenesis experiments on TAR have shown that trans-activation requires sequences in both the U-rich bulge (10, 11) and the loop sequence (12, 27, 28). These observations have now been extended, using TAR mutations with known affinities for tat in transfection experiments, the results of which are shown in FIG. 8. The experiments used either HeLa cells (FIG. 8a-d) or a constitutive producer of tat, HeLa/C63/tat cells (FIG. 8e-f).
The TAR sequences depicted in FIG. 3 [SEQ ID NO: 1-11] were introduced into a test plasmid, pD5-3-3, which carries a LTR and approximately 300 bases of 5' flanking sequences derived from the infectious proviral clone NL4 (29). The bacterial chloramphenicol acetyltransferase (CAT) gene and SV40 intron and terminator sequence from pSV2-CAT (30) was inserted downstream of TAR by cloning into the HindIII site at +77. Trans-activation was measured either by cotransfection of HeLa cells with the test plasmids and the tat expression plasmid pC63-4-1 (6) (panels a-d in […]), or by transfection of the test plasmids alone into HeLa/C63/tat (clone 9) cells (panels e-h). […]

[2] = test system: tat protein; assay: competition filter binding assay, bulge and stem mutant TAR RNAs (FIGS. 10-17, Tables 2 and 3); design: species or system HIV-1; details: 20 nM TAR RNA, read-out: D1/2
Text: The graphs shown in FIGS. 10 to 17 illustrate competition for tat binding between TAR RNA and various mutant TAR RNA sequences. In FIGS. 10 and 11 the region unpaired residues at positions 23, 24, 25, 23 being U, is shown to be essential for tat FIGS. 12, 13, 14, 15, 16 and 17 the base stem immediately adjacent to the U-rich bulge be required for efficient tat binding, with there being a requirement for a binding pair at residues 22 and 40 on one side of the bulge, and the base pair G26 - C39 on the other side of the bulge.
In Tables 2 and 3, D1/2 values for various mutant TAR RNA-L sequences are given along with the results of transactivation experiments in which the altered TAR RNA sequences were introduced into the CAT reporter plasmid D5-3-3. TAR RNA sequences which bind poorly are poor competitors and show increased values for D1/2.
Competitor RNA was produced by transcription as described in the method ---or FIG. 7. Binding reactions (500ul) contained 20 nM TAR RNA, 20,000 dpm ^32 P- labeled TAR RNA, 0.5 ug calf thymus DNA, 0.2 ug yeast tRNA, 40 Units RNAsin (Promega), 50 mM Tris-HCl pH7.5, 20 mM KCl in a final volume of 500 ul. […] The binding reaction mixtures were then filtered through pre-washed nitrocellulose filters (Millipore 0.45 u pore size) and the radioactivity retained on the filters assayed by liquid scintillation counting of the dried filters.

[3] = test system: transactivation by tat (CAT reporter plasmid D5-3-3); assay: transactivation in vivo, altered TAR sequences in CAT reporter plasmid D5-3-3 (Tables 2 and 3); assay type: cell-based
Protocol: The TAR sequences depicted in FIG. 3 [SEQ ID NO: 1-11] were introduced into a test plasmid, pD5-3-3, which carries a LTR and approximately 300 bases of 5' flanking sequences derived from the infectious proviral clone NL4 (29). The bacterial chloramphenicol acetyltransferase (CAT) gene and SV40 intron and terminator sequence from pSV2-CAT (30) was inserted downstream of TAR by cloning into the HindIII site at +77. Trans-activation was measured either by cotransfection of HeLa cells with the test plasmids and the tat expression plasmid pC63-4-1 (6) (panels a-d in FIG. 10), or by transfection of the test plasmids alone into HeLa/C63/tat (clone 9) cells (panels e-h).
In these experiments, cells were plated at a density of 3×10^5 in a T25 flask and transfected by the calcium phosphate method (31). […] To ensure that CAT activity was measured in the linear range of the assay (30), at less than 50% conversion of chloramphenicol in its acetylated forms, for each transfection, three different aliquots containing from 5 to 70 ul extract were assayed for CAT activity. […] Reaction products were extracted with ethylacetate, separated by thin layer chromatography on silica plates and bands were counted in scintillation fluid to calculate the chloramphenicol conversion efficiency per 10 ul of extract. […]

[4] = Table 2, mutations in the U-rich bulge
[5] = Table 3, mutations in the stem surrounding the U-rich bulge

Substance | trans-activation phenotype [1] | pIC50 [2, 4] | pIC50 [2, 5] | Units CAT activity/500 ng plasmid [3, 4] | Units CAT activity/500 ng plasmid [3, 5]
G28 to C28: TAR point mutation expected to disrupt the top of the TAR stem/loop structure (GGGUCUCUCUGGUUAGACCAGAUUUGACCCUGGGAGCUCUCUGGCUAACUAGGGAACCC; chemistry not given here) | defective phenotype | – | – | – | –
HIV-1 TAR (UUU): full length HIV-1 TAR RNA of 59 residues prepared by transcription, wild type, UUU bulge (GGGUCUCUCUGGUUAGACCAGAUUUGAGCCUGGGAGCUCUCUGGCUAACUAGGGAACCC; unmodified RNA) [reference compound] | – | 7.05 | 7.05 | 14,400 Units CAT activity/500 ng plas | 5,600 Units CAT activity/500 ng plas
